# Data taken from patent publication US20100120050A1, “Biomarkers For Assessing Altherosclerotic Potential” (ENTELOS, INC., priority 2008, published 2010).
# Like-named read-outs stand apart in the source and are kept apart here.
# Legend:
# hepatic genes (liver) = test system: hepatic genes (liver)
# Description: While the molecular target for PPARγ is not in the liver, it represents the effects of changes in metabolism of the whole animal, which impact liver lipoprotein production and clearance.
# Male Sprague-Dawley (Crl:CD® (SD)(IGS)BR) rats (Charles River Laboratories, Portage, Mich.), weight matched, 7 to 8 weeks of age, were housed individually in hanging, stainless steel, wire-bottom cages in a temperature (66-77° F.), light (12-hour dark/light cycle) and humidity (30-70%) controlled room. Water and rodent diet were available ad libitum throughout the 5 day acclimatization period and during the 5 day treatment period. Housing and treatment of the animals were in accordance with regulations outlined in the USDA Animal Welfare Act (9 CFR Parts 1, 2 and 3).
# Rats (three per group) were dosed daily at either a low or high dose. […] Animals were necropsied on days 0.25, 1, 3, and 5. Up to 13 tissues (e.g., liver, kidney, heart, bone marrow, blood, spleen, brain, intestine, glandular and nonglandular stomach, lung, muscle, and gonads) were collected for histopathological evaluation and microarray expression profiling on the Affymetrix Rat Whole Genome RG230 v2 platform. In addition, a clinical pathology panel consisting of 37 clinical chemistry and hematology parameters was generated from blood samples collected on days 3 and 5.
# Gene expression profiling, data processing and quality control were performed using protocols recommended by. Briefly, liver samples from 3 rats were chosen at random from each treatment and control group for each timepoint for expression profile analysis on the Affymetrix Rat Whole Genome RG230 v2 microarray (Affymetrix, Santa Clara, Calif.). Log transformed signal data for all probes were array-wise normalized using the Affymetrix MASS algorithm. Expression log ratios of base 10 (log(10) ratios) were computed as the difference between the logs of the averaged normalized experimental signals and the averaged normalized time-matched vehicle control signals for each gene.
# [1] = clinical trials and post-marketing; cited from earlier work
compound,measurement,setting,value
CN(CCOc1ccc(CC2SC(=O)NC2=O)cc1)c1ccccn1 (stereo not shown) [rosiglitazone],"Average Log (10) Ratio: L-3-hydroxyacyl-Coenzyme A dehydrogenase, short chain","hepatic genes (liver); rat liver, probe AA891362, Rn.92789, oral gavage, experiments of Table 3",−0.205
same,Average Log (10) Ratio: acetyl-coenzyme A acetyltransferase 1,"hepatic genes (liver); rat liver, probe AA899304, Rn.4054, oral gavage, experiments of Table 3",0.546
same,Average Log (10) Ratio: transferrin,"hepatic genes (liver); rat liver, probe AA945548, Rn.91296, oral gavage, experiments of Table 3",−0.376
same,Average Log (10) Ratio: sterol regulatory element binding factor 1,"hepatic genes (liver); rat liver, probe AF286470, Rn.801, oral gavage, experiments of Table 3",−0.464
same,"Average Log (10) Ratio: CCAAT/enhancer binding protein (C/EBP), delta","hepatic genes (liver); rat liver, probe AI176576, Rn.6975, oral gavage, experiments of Table 3",−0.407
same,Average Log (10) Ratio: fatty acid synthase,"hepatic genes (liver); rat liver, probe AI179334, Rn.9486, oral gavage, experiments of Table 3",−0.182
same,Average Log (10) Ratio: peroxisome proliferator activated receptor alpha,"hepatic genes (liver); rat liver, probe AI385341, Rn.9753, oral gavage, experiments of Table 3",0.461
same,Average Log (10) Ratio: perilipin,"hepatic genes (liver); rat liver, probe AI406700, Rn.9737, oral gavage, experiments of Table 3",0.137
same,Average Log (10) Ratio: monoglyceride lipase,"hepatic genes (liver); rat liver, probe AI713204, Rn.40396, oral gavage, experiments of Table 3",0.439
same,"Average Log (10) Ratio: phosphatidylinositol 3-kinase, C2 domain containing, gamma polypeptide","hepatic genes (liver); rat liver, probe AW526669, Rn.169550, oral gavage, experiments of Table 3",0.692
same,Average Log (10) Ratio: monoglyceride lipase,"hepatic genes (liver); rat liver, probe AY081195, Rn.40396, oral gavage, experiments of Table 3",0.621
same,Average Log (10) Ratio: mitogen-activated protein kinase 8,"hepatic genes (liver); rat liver, probe BE105603, Rn.4090, oral gavage, experiments of Table 3",−0.104
same,"Average Log (10) Ratio: ELOVL family member 6, elongation of long chain fatty acids (yeast)","hepatic genes (liver); rat liver, probe BF396857, Rn.46942, oral gavage, experiments of Table 3",0.495
same,Average Log (10) Ratio: sterol regulatory element binding factor 1,"hepatic genes (liver); rat liver, probe BF398848, Rn.801, oral gavage, experiments of Table 3",−0.461
same,Average Log (10) Ratio: RIKEN cDNA 1500016L11 (DBSS),"hepatic genes (liver); rat liver, probe BF407188, Rn.15135, oral gavage, experiments of Table 3",−0.448
same,Average Log (10) Ratio: monoglyceride lipase,"hepatic genes (liver); rat liver, probe BG372713, Rn.40396, oral gavage, experiments of Table 3",0.551
same,Average Log (10) Ratio: Pyruvate carboxylase,"hepatic genes (liver); rat liver, probe BG376902, Rn.11094, oral gavage, experiments of Table 3",−0.172
same,Average Log (10) Ratio: acetyl CoA transferase-like (DBSS),"hepatic genes (liver); rat liver, probe BG377636, Rn.98393, oral gavage, experiments of Table 3",0.519
same,Average Log (10) Ratio: phospholipid transfer protein (DBSS),"hepatic genes (liver); rat liver, probe BI278687, Rn.117434, oral gavage, experiments of Table 3",−0.378
same,"Average Log (10) Ratio: guanine nucleotide binding protein, alpha stimulating, olfactory type","hepatic genes (liver); rat liver, probe BI281656, Rn.39132, oral gavage, experiments of Table 3",0.107
same,Average Log (10) Ratio: acetyl-Coenzyme A acyltransferase 2 (mitochondrial 3-oxoacyl-Coenzyme A thiolase),"hepatic genes (liver); rat liver, probe BI282488, Rn.3786, oral gavage, experiments of Table 3",0.679
same,"Average Log (10) Ratio: glycerol-3-phosphate acyltransferase, mitochondrial","hepatic genes (liver); rat liver, probe BI288209, Rn.44456, oral gavage, experiments of Table 3",−0.183
same,"Average Log (10) Ratio: elongation of very long chain fatty acids (FEN1/Elo2, SUR4/Elo3, yeast)-like 3 (DBSS)","hepatic genes (liver); rat liver, probe BI292438, Rn.79322, oral gavage, experiments of Table 3",−0.042
same,Average Log (10) Ratio: NCI_CGAP_Emb2 cDNA clone IMAGE: 4176354,"hepatic genes (liver); rat liver, probe BI850137, Rn.83595, oral gavage, experiments of Table 3",−0.414
same,"Average Log (10) Ratio: pyruvate dehydrogenase kinase, isoenzyme 3 (mapped)","hepatic genes (liver); rat liver, probe BM389330, Rn.18101, oral gavage, experiments of Table 3",−0.646
same,Average Log (10) Ratio: 3-hydroxy-3-methylglutaryl-Coenzyme A reductase,"hepatic genes (liver); rat liver, probe BM390399, Rn.9437, oral gavage, experiments of Table 3",0.392
same,"Average Log (10) Ratio: sulfotransferase family 2A, dehydroepiandrosterone (DHEA)-preferring, member 1","hepatic genes (liver); rat liver, probe D14989, Rn.91378, oral gavage, experiments of Table 3",0.570
same,Average Log (10) Ratio: apolipoprotein E,"hepatic genes (liver); rat liver, probe J02582, Rn.32351, oral gavage, experiments of Table 3",−0.324
same,Average Log (10) Ratio: stearoyl-Coenzyme A desaturase 1,"hepatic genes (liver); rat liver, probe J02585, Rn.1023, oral gavage, experiments of Table 3",−0.668
same,Average Log (10) Ratio: apolipoprotein B,"hepatic genes (liver); rat liver, probe M14952, Rn.33815, oral gavage, experiments of Table 3",−0.255
same,Average Log (10) Ratio: NCI_CGAP_Emb2 cDNA clone IMAGE: 4176354,"hepatic genes (liver); rat liver, probe M15114, Rn.83595, oral gavage, experiments of Table 3",0.409
same,Average Log (10) Ratio: malic enzyme 1,"hepatic genes (liver); rat liver, probe M30596, Rn.161920, oral gavage, experiments of Table 3",0.554
same,Average Log (10) Ratio: glucokinase,"hepatic genes (liver); rat liver, probe NM_012565, Rn.10447, oral gavage, experiments of Table 3",−1.066
same,"Average Log (10) Ratio: serine (or cysteine) peptidase inhibitor, clade E, member 1","hepatic genes (liver); rat liver, probe NM_012620, Rn.29367, oral gavage, experiments of Table 3",0.819
same,"Average Log (10) Ratio: adrenergic receptor, beta 1","hepatic genes (liver); rat liver, probe NM_012701, Rn.87064, oral gavage, experiments of Table 3",−0.177
same,Average Log (10) Ratio: hexokinase 2,"hepatic genes (liver); rat liver, probe NM_012735, Rn.91375, oral gavage, experiments of Table 3",−0.330
same,"Average Log (10) Ratio: guanylate cyclase 1, soluble, beta 3","hepatic genes (liver); rat liver, probe NM_012769, Rn.87228, oral gavage, experiments of Table 3",−0.348
same,"Average Log (10) Ratio: guanylate cyclase 1, soluble, beta 2","hepatic genes (liver); rat liver, probe NM_012770, Rn.10933, oral gavage, experiments of Table 3",−0.465
same,Average Log (10) Ratio: mitogen activated protein kinase 10,"hepatic genes (liver); rat liver, probe NM_012806, Rn.9911, oral gavage, experiments of Table 3",0.458
same,Average Log (10) Ratio: carnitine palmitoyltransferase 2,"hepatic genes (liver); rat liver, probe NM_012930, Rn.11389, oral gavage, experiments of Table 3",0.494
same,Average Log (10) Ratio: 3-hydroxy-3-methylglutaryl-Coenzyme A reductase,"hepatic genes (liver); rat liver, probe NM_013134, Rn.9437, oral gavage, experiments of Table 3",0.389
same,"Average Log (10) Ratio: transforming growth factor, beta 3","hepatic genes (liver); rat liver, probe NM_013174, Rn.7018, oral gavage, experiments of Table 3",−0.380
same,"Average Log (10) Ratio: carnitine palmitoyltransferase 1b, muscle","hepatic genes (liver); rat liver, probe NM_013200, Rn.6028, oral gavage, experiments of Table 3",0.984
same,"Average Log (10) Ratio: solute carrier family 10, member 2","hepatic genes (liver); rat liver, probe NM_017222, Rn.85891, oral gavage, experiments of Table 3",−0.544
same,Average Log (10) Ratio: mitogen-activated protein kinase 9,"hepatic genes (liver); rat liver, probe NM_017322, Rn.9910, oral gavage, experiments of Table 3",−0.348
same,"Average Log (10) Ratio: acyl-Coenzyme A oxidase 1, palmitoyl","hepatic genes (liver); rat liver, probe NM_017340, Rn.31796, oral gavage, experiments of Table 3",0.336
same,"Average Log (10) Ratio: transforming growth factor, beta 1","hepatic genes (liver); rat liver, probe NM_021578, Rn.40136, oral gavage, experiments of Table 3",−0.592
same,"Average Log (10) Ratio: protein kinase, AMP-activated, beta 2 non-catalytic subunit","hepatic genes (liver); rat liver, probe NM_022627, Rn.15423, oral gavage, experiments of Table 3",−0.211
same,"Average Log (10) Ratio: transforming growth factor, beta 2","hepatic genes (liver); rat liver, probe NM_031131, Rn.24539, oral gavage, experiments of Table 3",0.020
same,"Average Log (10) Ratio: carnitine palmitoyltransferase 1a, liver","hepatic genes (liver); rat liver, probe NM_031559, Rn.2856, oral gavage, experiments of Table 3",0.264
same,"Average Log (10) Ratio: protein kinase, AMP-activated, beta 1 non-catalytic subunit","hepatic genes (liver); rat liver, probe NM_031976, Rn.3619, oral gavage, experiments of Table 3",−0.409
same,"Average Log (10) Ratio: ATP-binding cassette, sub-family D (ALD), member 1 (DBSS)","hepatic genes (liver); rat liver, probe NM_033352, Rn.177278, oral gavage, experiments of Table 3",0.450
same,"Average Log (10) Ratio: insulin-like growth factor binding protein, acid labile subunit","hepatic genes (liver); rat liver, probe NM_053329, Rn.164865, oral gavage, experiments of Table 3",−0.658
same,"Average Log (10) Ratio: pyruvate dehydrogenase kinase, isoenzyme 4","hepatic genes (liver); rat liver, probe NM_053551, Rn.30070, oral gavage, experiments of Table 3",0.442
same,"Average Log (10) Ratio: phosphatidylinositol 3-kinase, C2 domain containing, gamma polypeptide","hepatic genes (liver); rat liver, probe NM_053923, Rn.169550, oral gavage, experiments of Table 3",−0.485
same,Average Log (10) Ratio: pyruvate dehydrogenase E1 alpha 2,"hepatic genes (liver); rat liver, probe NM_053994, Rn.11126, oral gavage, experiments of Table 3",−0.338
same,"Average Log (10) Ratio: nuclear receptor subfamily 0, group B, member 2","hepatic genes (liver); rat liver, probe NM_057133, Rn.10712, oral gavage, experiments of Table 3",0.367
same,"Average Log (10) Ratio: hydroxyacyl-Coenzyme A dehydrogenase/3-ketoacyl-Coenzyme A thiolase/enoyl-Coenzyme A hydratase (trifunctional protein), beta subunit","hepatic genes (liver); rat liver, probe NM_133618, Rn.11253, oral gavage, experiments of Table 3",0.409
same,"Average Log (10) Ratio: ELOVL family member 5, elongation of long chain fatty acids (yeast)","hepatic genes (liver); rat liver, probe NM_134382, Rn.4243, oral gavage, experiments of Table 3",−0.486
same,"Average Log (10) Ratio: Glycerol-3-phosphate dehydrate dehydrogenase (mtGPDH) mRNA, 3′UTR","hepatic genes (liver); rat liver, probe U08027, Rn.89705, oral gavage, experiments of Table 3",0.635
same,"Average Log (10) Ratio: glycerol-3-phosphate acyltransferase, mitochondrial","hepatic genes (liver); rat liver, probe U36771, Rn.44456, oral gavage, experiments of Table 3",−0.156
same,"Average Log (10) Ratio: Cytochrome P450, family 2, subfamily b, polypeptide 2","hepatic genes (liver); rat, in vivo, po",0.629
same,"Average Log (10) Ratio: cytochrome P450, family 2, subfamily b, polypeptide 13","hepatic genes (liver); rat, in vivo, po",0.499
same,"Average Log (10) Ratio: cytochrome P450, family 3, subfamily a, polypeptide 13","hepatic genes (liver); rat, in vivo, po",0.550
same,"Average Log (10) Ratio: cytochrome P450, family 7, subfamily a, polypeptide 1","hepatic genes (liver); rat, in vivo, po",−0.168
same,"Average Log (10) Ratio: cytochrome P450, family 8, subfamily b, polypeptide 1","hepatic genes (liver); rat, in vivo, po",0.394
same,risk of cardiovascular events,[1],paradoxically increased risk of cardiovascular events
